For 24 molecules, IC50 results are on record in US9540366B2, “Ring-fused heterocyclic compound” (Kyowa Hakko Kirin Co., Ltd., priority 2012, dated 2017).

The structures appear in SMILES notation. Some results are limits rather than exact numbers.

T1 sequence (O95180 whole entry): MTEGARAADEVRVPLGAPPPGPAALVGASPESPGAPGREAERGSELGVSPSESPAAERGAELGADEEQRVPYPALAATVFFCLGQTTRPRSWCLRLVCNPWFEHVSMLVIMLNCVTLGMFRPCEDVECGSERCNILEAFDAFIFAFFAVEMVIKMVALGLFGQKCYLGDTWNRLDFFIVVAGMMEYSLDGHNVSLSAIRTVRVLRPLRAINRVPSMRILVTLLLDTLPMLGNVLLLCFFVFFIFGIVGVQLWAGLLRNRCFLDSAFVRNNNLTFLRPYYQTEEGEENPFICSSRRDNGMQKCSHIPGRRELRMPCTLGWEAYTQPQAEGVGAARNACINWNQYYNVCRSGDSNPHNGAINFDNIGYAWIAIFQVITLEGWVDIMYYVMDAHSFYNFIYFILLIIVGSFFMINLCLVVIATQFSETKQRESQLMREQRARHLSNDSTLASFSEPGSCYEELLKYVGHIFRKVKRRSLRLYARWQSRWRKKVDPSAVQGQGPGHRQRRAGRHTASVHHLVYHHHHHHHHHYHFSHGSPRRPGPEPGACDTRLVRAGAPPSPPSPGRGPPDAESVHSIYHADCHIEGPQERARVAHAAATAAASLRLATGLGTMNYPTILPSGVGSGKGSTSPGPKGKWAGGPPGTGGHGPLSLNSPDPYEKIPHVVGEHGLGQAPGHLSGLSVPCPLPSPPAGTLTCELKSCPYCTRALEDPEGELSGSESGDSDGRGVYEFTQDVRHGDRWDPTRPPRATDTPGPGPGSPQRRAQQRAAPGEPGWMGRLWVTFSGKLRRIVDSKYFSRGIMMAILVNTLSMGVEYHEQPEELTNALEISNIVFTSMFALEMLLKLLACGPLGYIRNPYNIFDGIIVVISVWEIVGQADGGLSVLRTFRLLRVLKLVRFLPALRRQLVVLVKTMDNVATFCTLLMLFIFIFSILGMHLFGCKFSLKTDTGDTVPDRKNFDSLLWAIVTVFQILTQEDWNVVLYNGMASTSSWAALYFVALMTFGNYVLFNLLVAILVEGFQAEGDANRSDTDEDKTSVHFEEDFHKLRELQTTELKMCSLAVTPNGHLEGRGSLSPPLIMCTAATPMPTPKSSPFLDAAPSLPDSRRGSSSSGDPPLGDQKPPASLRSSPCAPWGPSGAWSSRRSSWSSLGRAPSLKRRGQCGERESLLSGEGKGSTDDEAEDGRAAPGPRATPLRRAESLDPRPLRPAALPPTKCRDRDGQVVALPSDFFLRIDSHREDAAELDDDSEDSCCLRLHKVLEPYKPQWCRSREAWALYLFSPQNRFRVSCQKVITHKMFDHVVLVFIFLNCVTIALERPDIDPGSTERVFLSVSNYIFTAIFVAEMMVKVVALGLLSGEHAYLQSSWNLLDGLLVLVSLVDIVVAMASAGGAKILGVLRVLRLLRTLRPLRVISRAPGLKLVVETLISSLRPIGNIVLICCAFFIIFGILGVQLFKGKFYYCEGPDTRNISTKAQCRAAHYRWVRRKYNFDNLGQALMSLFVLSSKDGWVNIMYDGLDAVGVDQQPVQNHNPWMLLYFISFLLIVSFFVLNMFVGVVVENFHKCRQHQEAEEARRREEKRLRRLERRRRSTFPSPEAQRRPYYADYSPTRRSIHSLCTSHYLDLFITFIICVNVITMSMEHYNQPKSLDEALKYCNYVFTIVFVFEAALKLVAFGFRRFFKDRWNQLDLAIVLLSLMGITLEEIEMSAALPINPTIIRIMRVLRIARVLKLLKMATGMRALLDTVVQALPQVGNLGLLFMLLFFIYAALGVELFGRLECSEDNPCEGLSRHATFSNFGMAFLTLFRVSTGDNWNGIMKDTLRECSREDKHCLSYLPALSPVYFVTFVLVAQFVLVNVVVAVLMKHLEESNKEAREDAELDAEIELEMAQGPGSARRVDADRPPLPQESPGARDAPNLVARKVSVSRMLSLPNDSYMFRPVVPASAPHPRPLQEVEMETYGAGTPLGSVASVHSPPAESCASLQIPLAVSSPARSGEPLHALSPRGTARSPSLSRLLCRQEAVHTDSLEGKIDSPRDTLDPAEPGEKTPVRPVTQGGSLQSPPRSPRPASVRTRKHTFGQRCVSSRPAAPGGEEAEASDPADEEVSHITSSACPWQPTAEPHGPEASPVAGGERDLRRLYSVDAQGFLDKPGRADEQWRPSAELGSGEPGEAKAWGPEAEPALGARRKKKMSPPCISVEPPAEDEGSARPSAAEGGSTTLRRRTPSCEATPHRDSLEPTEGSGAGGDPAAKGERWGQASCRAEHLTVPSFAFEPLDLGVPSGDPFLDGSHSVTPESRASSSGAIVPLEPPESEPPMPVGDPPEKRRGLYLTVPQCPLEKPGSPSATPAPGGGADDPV

One experiment has as its target T1, human Cav3.2 T-type Ca2+ channel (Homo sapiens, UniProt O95180).
T1 construct: expressed in transfected cells; host or cells: KJMGER8 cells (Namalwa cell-derived cell line)
Put plainly: Inhibitory effect for intracellular calcium response via Cav3.2 T-type Ca2+ channels (FLIPR Calcium 3 Assay Kit). The format is cell-based.
Conditions: not given
Background: A change in cytosolic calcium serves as a functional read-out for many receptors and channels.
As usually defined, the IC50 is the concentration that inhibits the measured activity by half. Turning to `O=C(NC1CCOCC1)c1cc(Br)n2c(CC3CCC(F)(F)CC3)c(C(F)(F)F)nc2c1` [Compound 39], the IC50 is not above 100 nM. The same measure, in the same setting: for `O=Cc1cc(C(=O)NC2CCOCC2)cc2nc(C(F)(F)F)c(CC3CCC(F)(F)CC3)n12` [Compound 45, 3-[(4,4-Difluorocyclohexyl)methyl]-5-formyl-N-(tetrahydro-2H-pyran-4-yl)-2-(trifluoromethyl)imidazo[1,2-a]pyridine-7-carboxamide] the value was not above 100 nM; for `O=C(NC1CCOCC1)c1cc(CF)n2c(CC3CCC(F)(F)CC3)c(C(F)(F)F)nc2c1` [Compound 47, 3-[(4,4-Difluorocyclohexyl)methyl]-5-(fluoromethyl)-N-(tetrahydro-2H-pyran-4-yl)-2-(trifluoromethyl)imidazo[1,2-a]pyridine-7-carboxamide], not above 100 nM; for `O=C(NC1CCOCC1)c1cc(C(F)F)n2c(CC3CCC(F)(F)CC3)c(C(F)(F)F)nc2c1` [Compound 48, 3-[(4,4-Difluorocyclohexyl)methyl]-5-(difluoromethyl)-N-(tetrahydro-2H-pyran-4-yl)-2-(trifluoromethyl)imidazo[1,2-a]pyridine-7-carboxamide], not above 100 nM.

As for `O=C(NC1CCOCC1)c1cc(O)n2c(CC3CCC(F)(F)CC3)c(C(F)(F)F)nc2c1` [Compound 49, 3-[(4,4-Difluorocyclohexyl)methyl]-5-hydroxy-N-(tetrahydro-2H-pyran-4-yl)-2-(trifluoromethyl)imidazo[1,2-a]pyridine-7-carboxamide], the IC50 is not above 100 nM.

Regarding `CC(C)(O)CNC(=O)c1cc(C#N)n2c(CC3CCC(F)(F)CC3)c(C(F)(F)F)nc2c1` [Compound 51, 5-Cyano-3-[(4,4-difluorocyclohexyl)methyl]-N-(2-hydroxy-2-methylpropyl)-2-(trifluoromethyl)imidazo[1,2-a]pyridine-7-carboxamide], the IC50 is not above 100 nM. Still for that read-out and setting: for `N#Cc1cc(C(=O)Nc2ccccc2N)cc2nc(C(F)(F)F)c(CC3CCC(F)(F)CC3)n12` [Compound 52, N-(2-Aminophenyl)-5-cyano-3-[(4,4-difluorocyclohexyl)methyl]-2-(trifluoromethyl)imidazo[1,2-a]pyridine-7-carboxamide] the value was not above 100 nM; for `N#Cc1cc(C(=O)NC2CCC2)cc2nc(C(F)(F)F)c(CC3CCC(F)(F)CC3)n12` [Compound 54, 5-Cyano-N-cyclobutyl-3-[(4,4-difluorocyclohexyl)methyl]-2-(trifluoromethyl)imidazo[1,2-a]pyridine-7-carboxamide], not above 100 nM.

As for `N#Cc1cc(C(=O)N[C@H]2CC[C@H](O)CC2)cc2nc(C(F)(F)F)c(CC3CCC(F)(F)CC3)n12` [Compound 56, 5-Cyano-3-[(4,4-difluorocyclohexyl)methyl]-N-[(1R,4R)-4-hydroxycyclohexyl]-2-(trifluoromethyl)imidazo[1,2-a]pyridine-7-carboxamide], the IC50 was not above 100 nM. As to `CC1(C)CC(NC(=O)c2cc(C#N)n3c(CC4CCC(F)(F)CC4)c(C(F)(F)F)nc3c2)CCO1` (stereo not drawn) [Compound 57, 5-Cyano-3-[(4,4-difluorocyclohexyl)methyl]-N-(2,2-dimethyltetrahydro-2H-pyran-4-yl)-2-(trifluoromethyl)imidazo[1,2-a]pyridine-7-carboxamide], the IC50 is not above 100 nM. Same read-out and setting: for `N#Cc1cc(C(=O)NC2(CO)CCOCC2)cc2nc(C(F)(F)F)c(CC3CCC(F)(F)CC3)n12` [Compound 58, 5-Cyano-3-[(4,4-difluorocyclohexyl)methyl]-N-[4-(hydroxymethyl)tetrahydro-2H-pyran-4-yl]-2-(trifluoromethyl)imidazo[1,2-a]pyridine-7-carboxamide] the value was not above 100 nM; for `N#Cc1cc(C(=O)NC2CCOC2)cc2nc(C(F)(F)F)c(CC3CCC(F)(F)CC3)n12` (stereo not drawn) [Compound 62], not above 100 nM. On the same count and under the same terms, under `CC(C)(NC(=O)c1cc(C#N)n2c(CC3CCC(F)(F)CC3)c(C(F)(F)F)nc2c1)C1CCOCC1` [Compound 63, 5-Cyano-3-[(4,4-difluorocyclohexyl)methyl]-N-[2-(tetrahydro-2H-pyran-4-yl)propan-2-yl]-2-(trifluoromethyl)imidazo[1,2-a]pyridine-7-carboxamide] stands not above 100 nM. On the same count and under the same terms, for `N#Cc1cc(C(=O)NOC2CCOCC2)cc2nc(C(F)(F)F)c(CC3CCC(F)(F)CC3)n12` [Compound 65] the value was not above 100 nM; for `N#Cc1cc(C(=O)NC2(C3CCOCC3)CC2)cc2nc(C(F)(F)F)c(CC3CCC(F)(F)CC3)n12` [Compound 66, 5-Cyano-3-[(4,4-difluorocyclohexyl)methyl]-N-[1-(tetrahydro-2H-pyran-4-yl)cyclopropyl]-2-(trifluoromethyl)imidazo[1,2-a]pyridine-7-carboxamide], not above 100 nM. `N#Cc1cc(C(=O)NCC(=O)c2ccccc2)cc2nc(C(F)(F)F)c(CC3CCC(F)(F)CC3)n12` [Compound 67, 5-Cyano-3-[(4,4-difluorocyclohexyl)methyl]-N-(2-oxo-2-phenylethyl)-2-(trifluoromethyl)imidazo[1,2-a]pyridine-7-carboxamide]: the IC50 was not above 100 nM. Still for that read-out and setting: under `N#Cc1cc(C(=O)NCC2(O)CC2)cc2nc(C(F)(F)F)c(CC3CCC(F)(F)CC3)n12` [Compound 69, 5-Cyano-3-[(4,4-difluorocyclohexyl)methyl]-N-[(1-hydroxycyclopropyl)methyl]-2-(trifluoromethyl)imidazo[1,2-a]pyridine-7-carboxamide] stands not above 100 nM; under `Cc1cc(C(=O)NOC2CCOCC2)cc2nc(C(F)(F)F)c(CC3CCC(F)(F)CC3)n12` [Compound 72, 3-[(4,4-Difluorocyclohexyl)methyl]-5-methyl-N-(tetrahydro-2H-pyran-4-yloxy)-2-(trifluoromethyl)imidazo[1,2-a]pyridine-7-carboxamide], not above 100 nM.

Staying with this experiment, now noted: human Cav3.2-expressing KJMGER8 cells (Namalwa-derived); calcium response induced by 5 mmol/L CaCl2; 3 μmol/L mibefradil as reference; read-out: IC50 for the human Cav3.2 T-type Ca2+ current.
For the molecule `Cc1cc(C(=O)NC2CCOCC2)cc2nc(C(C)C)c(N(C)C3CCCCC3)n12` [Compound 34, 3-[Cyclohexyl(methyl)amino]-2-isopropyl-5-methyl-N-(tetrahydro-2H-pyran-4-yl)imidazo[1,2-a]pyridine-7-carboxamide], the IC50 is not above 100 nM.

`C#Cc1cc(C(=O)NC2CCOCC2)cc2nc(C(F)(F)F)c(CC3CCC(F)(F)CC3)n12` [Compound 50, 3-[(4,4-Difluorocyclohexyl)methyl]-5-ethynyl-N-(tetrahydro-2H-pyran-4-yl)-2-(trifluoromethyl)imidazo[1,2-a]pyridine-7-carboxamide]: the IC50 is not above 100 nM. The same measure, in the same setting: under `N#Cc1cc(C(=O)NCC2COCCO2)cc2nc(C(F)(F)F)c(CC3CCC(F)(F)CC3)n12` (stereo not drawn) [Compound 59, N-[(1,4-Dioxan-2-yl)methyl]-5-cyano-3-[(4,4-difluorocyclohexyl)methyl]-2-(trifluoromethyl)imidazo[1,2-a]pyridine-7-carboxamide] stands not above 100 nM; under `N#Cc1cc(C(=O)NC2COC2)cc2nc(C(F)(F)F)c(CC3CCC(F)(F)CC3)n12` [Compound 60], not above 100 nM; under `N#Cc1cc(C(=O)NC2CCCOC2)cc2nc(C(F)(F)F)c(CC3CCC(F)(F)CC3)n12` (stereo not drawn) [Compound 64], not above 100 nM. On the same count and under the same terms, under `N#Cc1cc(C(=O)NC2CCC3(CC2)COC3)cc2nc(C(F)(F)F)c(CC3CCC(F)(F)CC3)n12` [Compound 70, 5-Cyano-3-[(4,4-difluorocyclohexyl)methyl]-N-(2-oxaspiro[3.5]nonan-7-yl)-2-(trifluoromethyl)imidazo[1,2-a]pyridine-7-carboxamide] stands not above 100 nM.
